# Test results reported in patent publication US6946483B2, “Aminoalkenylbenzoyl-benzofuran or benzothiophene, method for preparing same and compositions containing same” (Sanofi-Aventis, priority 2000, dated 2005).
# Counter-ions that a name gives are not always drawn.
row,melting point [°C],SMILES
1,129,CCCCc1oc2cc(C)c(C(=O)OC(C)C)cc2c1C(=O)c1ccc(/C=C\CN(CCCC)CCCC)cc1.Cl
2,153 to 154,CCCCc1oc2ccc(C(=O)OC)cc2c1C(=O)c1ccc(C#CCN2CCCCC2)cc1 (as salt: hydrochloride) [Example 34]
3,166 to 167,CCCCNCC#Cc1ccc(C(=O)c2c(CCCC)oc3ccc(C(=O)OC(C)C)cc23)cc1 (as salt: hydrochloride) [Example 36]
4,110 to 114,CCCCc1oc2cc(C(=O)OC(C)C)ccc2c1C(=O)c1ccc(/C=C/CN(CCCC)CCCC)cc1 (as salt: hydrochloride) [Example 38]
5,147 to 150,CCCCN(C/C=C/c1ccc(C(=O)c2c(CC(C)C)oc3ccc(C(=O)OC(C)C)cc23)cc1)CCCC (as salt: hydrochloride) [Example 40]
6,171 to 173,CCCCN(C/C=C/c1ccc(C(=O)c2c(C3CCCCC3)oc3ccc(C(=O)OC(C)C)cc23)cc1)CCCC (as salt: hydrochloride) [Example 43]
7,189 to 191,CCCCN(C/C=C/c1ccc(C(=O)c2c(C)oc3ccc(C(=O)OC(C)C)cc23)cc1)CCCC (as salt: hydrochloride) [Example 50]
8,112,CCCCc1oc2ccc(C(=O)OC(C)C)cc2c1C(=O)c1ccc(/C=C/CN(CCCC)CCCC)cc1 (as salt: oxalate) [Example 39]
9,110 to 115,CCCCc1oc2ccc(C(=O)OC(C)C)cc2c1C(=O)c1cc(C)c(/C=C/CN(CCCC)CCCC)c(C)c1 (as salt: oxalate) [Example 44]
10,91 to 93,CCCCc1oc2ccc(C(=O)OC(C)C)cc2c1C(=O)c1cc(Cl)c(/C=C/CN(CCCC)CCCC)c(Cl)c1 (as salt: oxalate) [Example 51]
11,120,CCCCc1oc2c(C(=O)OC(C)C)cccc2c1C(=O)c1ccc(/C=C/CN(CCCC)CCCC)cc1 (as salt: oxalate) [Example 52]
